In patent US8211903B2, “Substituted pyrimido isoquinoline derivatives” (Mitsubishi Tanabe Pharma Corporation, priority 2008, dated 2012):
Counter-ions that a name gives are not always drawn.

Target: GSK3β (Homo sapiens, UniProt P49841)
Experiment: Inhibitory activity against GSK3β (33P-ATP phosphorylation of prephosphorylated GS1 peptide)
Format: biochemical
Settings: protocol 3: 7.5 μM GS1 peptide, 10 μM ATP, 50 mM Hepes pH 7.2, one hour at room temperature
Description: Four different protocols can be used.
In a first protocol: 7.5 μM of prephosphorylated GS1 peptide and 10 μM ATP (containing 300,000 cpm of ^33P-ATP) were incubated in 25 mM Tris-HCl, pH 7.5, 0.6 mM DTT, 6 mM MgCl2, 0.6 mM EGTA, 0.05 mg/ml BSA buffer for 1 hour at room temperature in the presence of GSK3beta (total reaction volume: 100 microliters).
In a second protocol: 4.1 μM of prephosphorylated GS1 peptide and 42 μM ATP (containing 260,000 cpm ^33P-ATP) were incubated in 80 mM Mes-NaOH, pH 6.5, 1 mM Mg acetate, 0.5 mM EGTA, 5 mM 2-mercaptoethanol, 0.02% Tween 20, 10% glycerol buffer for 2 hours at room temperature in the presence of GSK3beta.
In a third protocol: 7.5 μM of prephosphorylated GS1 peptide and 10 μM ATP (containing 300,000 cpm of ^33P-ATP) were incubated in 50 mM Hepes, pH 7.2, 1 mM DTT, 1 mM MgCl2, 1 mM EGTA, 0.01% Tween 20 buffer for one hour at room temperature in the presence of GSK3beta (total reaction volume: 100 microliters). […]
The reaction was stopped with 100 microliters of a solution made of 25 g polyphosphoric acid (85% P2O5), 126 ml 85% H3PO4, H2O to 500 ml and then diluted to 1:100 before use. […] Incorporated ^33P radioactivity was determined by liquid scintillation spectrometry. […]

GSK3β, sequence (P49841 whole entry): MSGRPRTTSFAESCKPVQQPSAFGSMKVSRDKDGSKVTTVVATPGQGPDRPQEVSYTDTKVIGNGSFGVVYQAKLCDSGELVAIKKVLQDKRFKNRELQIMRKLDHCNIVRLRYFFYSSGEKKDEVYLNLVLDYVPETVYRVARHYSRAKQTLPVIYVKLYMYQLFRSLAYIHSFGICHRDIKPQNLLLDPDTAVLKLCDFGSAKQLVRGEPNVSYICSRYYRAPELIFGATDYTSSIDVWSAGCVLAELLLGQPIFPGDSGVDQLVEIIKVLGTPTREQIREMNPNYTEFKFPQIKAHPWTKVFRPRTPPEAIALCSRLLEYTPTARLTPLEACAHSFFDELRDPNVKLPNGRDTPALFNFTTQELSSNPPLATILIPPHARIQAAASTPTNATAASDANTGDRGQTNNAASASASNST

Row | SMILES | IC50 [nM]
1 | O=c1cc(-c2ccncc2)nc2c3ccccc3ccn12 [compound 1, 2-Pyridin-4-yl-pyrimido[2,1-a]isoquinolin-4-one] | 330
2 | Nc1cccc2c1ccn1c(=O)cc(-c3ccncc3)nc21 [compound 5, 8-Amino-2-pyridin-4-yl-pyrimido[2,1-a]isoquinolin-4-one] | 170

Tested on: not given
Experiment: not given
Settings: not given

Row | SMILES | melting point [°C]
3 | O=c1cc(-c2ccncc2)nc2c3cccc([N+](=O)[O-])c3ccn12 (as salt: hydrochloride) [compound 4, 8-Nitro-2-pyridin-4-yl-pyrimido[2,1-a]isoquinolin-4-one] | 270 to 272
4 | O=c1cc(-c2ccncc2)nc2c3cc(O)ccc3ccn12 (as salt: oxalate) [compound 6, 10-Hydroxy-2-pyridin-4-yl-pyrimido[2,1-a]isoquinolin-4-one] | 368 to 370
5 | Nc1cccc2c1ccn1c(=O)cc(-c3ccncc3)nc21 [compound 5, 8-Amino-2-pyridin-4-yl-pyrimido[2,1-a]isoquinolin-4-one] | 329 to 331
6 | COc1ccc2ccn3c(=O)cc(-c4ccncn4)nc3c2c1 [compound 7, 10-Methoxy-2-pyrimidin-4-yl-pyrimido[2,1-a]isoquinolin-4-one] | 302 to 304
7 | COc1cc2c(cc1OC)-c1nc(-c3ccncc3)cc(=O)n1CC2 [compound 9, 9,10-Dimethoxy-2-pyridin-4-yl-6,7-dihydro-pyrimido[2,1-a]isoquinolin-4-one] | 271 to 273
